Assay results: patent publication US11713338B2, “Cyclic peptides multimers targeting α-4-β-7 integrin” (priority 2016, dated 2023)

How the values were obtained:
[1] = molecular target: T1, recombinant integrin α4β7 (Homo sapiens, UniProt P13612+P26010, DEL724-798); experiment: Integrin α4β7—MAdCAM-1 ELISA competition assay; assay type: binding; conditions: for ELISA Assay Ratio b1/b7: ratio of a4b1 to a4b7 ELISA IC50; for IC50: read-out: ELISA a4b7 Assay IC50
T1 construct: purchased R&D Systems 5397-A3-050
T1 sequence (P13612 34-970 limits assumed): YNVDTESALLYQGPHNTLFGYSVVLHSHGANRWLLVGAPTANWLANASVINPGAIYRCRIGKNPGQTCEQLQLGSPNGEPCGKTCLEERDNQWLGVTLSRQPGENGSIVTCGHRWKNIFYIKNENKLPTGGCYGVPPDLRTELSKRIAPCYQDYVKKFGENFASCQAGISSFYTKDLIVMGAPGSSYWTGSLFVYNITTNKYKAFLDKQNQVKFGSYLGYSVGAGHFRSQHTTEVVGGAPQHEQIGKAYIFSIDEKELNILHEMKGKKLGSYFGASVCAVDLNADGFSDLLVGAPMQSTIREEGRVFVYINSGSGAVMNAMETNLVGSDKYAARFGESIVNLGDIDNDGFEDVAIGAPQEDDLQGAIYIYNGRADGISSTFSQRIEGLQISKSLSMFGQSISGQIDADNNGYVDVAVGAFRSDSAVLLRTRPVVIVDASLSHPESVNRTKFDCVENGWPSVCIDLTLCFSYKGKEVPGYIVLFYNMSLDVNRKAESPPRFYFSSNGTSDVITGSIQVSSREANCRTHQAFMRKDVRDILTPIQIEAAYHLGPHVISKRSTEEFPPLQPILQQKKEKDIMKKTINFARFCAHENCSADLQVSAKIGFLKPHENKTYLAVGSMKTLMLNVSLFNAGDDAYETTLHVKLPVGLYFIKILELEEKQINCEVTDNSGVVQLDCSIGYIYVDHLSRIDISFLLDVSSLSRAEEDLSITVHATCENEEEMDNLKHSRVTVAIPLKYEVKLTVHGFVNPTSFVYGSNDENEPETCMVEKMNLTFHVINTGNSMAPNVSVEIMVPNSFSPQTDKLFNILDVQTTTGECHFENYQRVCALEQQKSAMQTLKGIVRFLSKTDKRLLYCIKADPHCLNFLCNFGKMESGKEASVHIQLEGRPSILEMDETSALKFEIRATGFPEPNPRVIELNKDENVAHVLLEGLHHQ
T1 sequence (P26010 20-723 limits assumed): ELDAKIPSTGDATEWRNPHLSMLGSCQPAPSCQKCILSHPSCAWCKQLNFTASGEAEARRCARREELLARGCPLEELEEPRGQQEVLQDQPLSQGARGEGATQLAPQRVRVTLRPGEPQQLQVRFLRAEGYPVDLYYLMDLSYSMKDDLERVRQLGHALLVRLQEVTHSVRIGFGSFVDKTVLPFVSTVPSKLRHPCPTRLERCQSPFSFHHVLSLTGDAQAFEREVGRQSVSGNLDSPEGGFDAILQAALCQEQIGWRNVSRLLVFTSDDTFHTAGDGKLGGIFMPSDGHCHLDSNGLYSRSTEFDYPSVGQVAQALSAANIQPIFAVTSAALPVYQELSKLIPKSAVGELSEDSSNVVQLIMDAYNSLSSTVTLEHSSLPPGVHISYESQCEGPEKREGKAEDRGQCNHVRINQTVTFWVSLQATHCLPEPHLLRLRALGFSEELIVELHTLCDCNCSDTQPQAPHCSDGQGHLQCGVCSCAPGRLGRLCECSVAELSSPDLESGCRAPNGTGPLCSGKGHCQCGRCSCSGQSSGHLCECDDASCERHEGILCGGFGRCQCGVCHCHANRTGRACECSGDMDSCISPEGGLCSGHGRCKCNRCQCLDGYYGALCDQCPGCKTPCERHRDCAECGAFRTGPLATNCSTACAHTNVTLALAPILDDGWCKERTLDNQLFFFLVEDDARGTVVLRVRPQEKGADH

[2] = molecular target: T2, recombinant integrin α4β1 (Homo sapiens, UniProt P05556+P13612); experiment: Integrin α4β1—VCAM-1 competition ELISA; assay type: binding; conditions: read-out: ELISA a4b1 Assay IC50
T2 construct: purchased R&D Systems 5397-A3-050
Experimental: Integrin α4β1—VCAM-1 Competition ELISA
The plate was incubated at 4° C. overnight. […] The plate was then incubated for 1 hour at room temperature. The plate was washed three times with wash buffer (50 mM Tris, 100 mM NaCl, 1 mM MnCl2, 0.05% Tween). To each well, 50 μl of compound diluted in assay buffer was added by transfer from a compound serial dilution plate. […] The plate was incubated at room temperature with shaking (300 rpm) for 2 hours to reach binding equilibrium. Then the plate was washed three times in wash buffer and 100 μl anti-human IgG Fc specific-HRP (Abcam, Ab97225) diluted at 1:2000 in assay buffer was added to each well. The plate was incubated at room temperature for 1 hour under agitation.

T2 sequence (P05556 21-728 limits assumed, one chain of several): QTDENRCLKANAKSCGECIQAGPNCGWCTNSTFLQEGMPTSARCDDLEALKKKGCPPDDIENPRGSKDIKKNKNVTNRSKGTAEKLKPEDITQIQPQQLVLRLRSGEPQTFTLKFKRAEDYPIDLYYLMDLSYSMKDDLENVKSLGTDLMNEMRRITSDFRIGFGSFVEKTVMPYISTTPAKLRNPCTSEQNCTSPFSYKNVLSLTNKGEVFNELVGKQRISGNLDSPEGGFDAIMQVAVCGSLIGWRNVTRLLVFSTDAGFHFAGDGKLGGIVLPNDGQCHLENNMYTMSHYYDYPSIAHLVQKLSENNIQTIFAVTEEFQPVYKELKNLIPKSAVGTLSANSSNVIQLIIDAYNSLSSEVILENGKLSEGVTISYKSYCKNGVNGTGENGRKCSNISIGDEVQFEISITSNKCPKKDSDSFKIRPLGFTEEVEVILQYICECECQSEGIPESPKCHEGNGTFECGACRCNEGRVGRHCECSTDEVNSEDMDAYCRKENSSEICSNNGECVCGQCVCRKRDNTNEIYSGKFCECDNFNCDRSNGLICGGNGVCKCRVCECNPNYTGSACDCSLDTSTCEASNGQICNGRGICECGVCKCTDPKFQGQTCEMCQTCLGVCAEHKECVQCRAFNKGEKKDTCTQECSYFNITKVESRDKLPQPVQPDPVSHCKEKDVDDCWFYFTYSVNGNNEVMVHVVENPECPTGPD

Structure (SMILES) | ELISA Assay Ratio b1/b7 [1] | IC50 [1] [nM] | IC50 [2] [nM]
CC(C)C[C@@H]1NC(=O)[C@@H](CCCCN)NC(=O)[C@H](Cc2ccc(O)cc2)NC(=O)[C@@H]2CCCN2[C@H](C(=O)NC(C)(C)C)[C@H](C)NC(=O)[C@H]([C@@H](C)O)N(C)C(=O)[C@H](CC(=O)O)NC1=O [Compound 121] | 11.4 | 192 | 2190
CC(C)C[C@@H]1NC(=O)c2ccc(-c3ccncc3)c(c2)CNC(=O)[C@H](Cc2ccc(O)cc2)NC(=O)[C@@H]2CCCN2[C@H](C(=O)NC(C)(C)C)[C@H](C)NC(=O)[C@H]([C@@H](C)O)NC(=O)[C@H](CC(=O)O)NC1=O [Compound 337] | 2.9 | 61 | 177
CC(C)C[C@@H]1NC(=O)[C@H]2CCCCN2C(=O)[C@H](Cc2ccc(-c3ccccc3)cc2)NC(=O)[C@@H]2CCCN2[C@H](C(=O)NC(C)(C)C)[C@H](C)NC(=O)[C@H]([C@@H](C)O)NC(=O)[C@H](CC(=O)O)NC1=O [Compound 138] | 5.0 | 24 | 118
CC(C)C[C@@H]1NC(=O)c2cccc(c2)CNC(=O)[C@@H]2CCCN2[C@H](C(=O)NC(C)(C)C)[C@H](C)NC(=O)[C@H]([C@@H](C)O)NC(=O)[C@H](CC(=O)O)NC1=O [Compound 358] | 8.7 | 127 | 1110
CC(C)C[C@@H]1NC(=O)[C@H]2C[C@@H](O)CN2C(=O)[C@H](Cc2ccc(O)cc2)NC(=O)[C@@H]2CCCN2[C@H](C(=O)NC(C)(C)C)[C@H](C)NC(=O)[C@H]([C@@H](C)O)NC(=O)[C@H](CC(=O)O)NC1=O [Compound 141] | 2.0 | 19 | 36
C=CCOc1ccc(C[C@@H]2NC(=O)[C@@H]3CCCN3[C@H](C(=O)NC(C)(C)C)[C@H](C)NC(=O)[C@H]([C@@H](C)O)NC(=O)[C@H](CC(=O)O)NC(=O)[C@H](CC(C)C)NC(=O)CNC2=O)cc1 [Compound 163] | 11.0 | 126 | 1390
CC[C@@H](C)[C@@H]1NC(=O)[C@H](CC(=O)O)NC(=O)[C@H](CC(C)C)NC(=O)C[C@H](CCCCN)NC(=O)[C@H](Cc2ccc(CN)cc2)NC(=O)[C@@H]2CCCN2[C@H](C(=O)NC(C)(C)C)[C@H](C)NC1=O [Compound 285] | 6.2 | 89 | 553
CC(C)C[C@@H]1NC(=O)[C@@H](CCCNC(=N)N)N(C)C(=O)[C@H](Cc2ccc(O)cc2)NC(=O)[C@@H]2CCCN2[C@H](C(=O)NC(C)(C)C)[C@H](C)NC(=O)[C@H]([C@@H](C)O)NC(=O)[C@H](CC(=O)O)NC1=O [Compound 157] | 55.3 | 67 | 3710
CC(C)C[C@@H]1NC(=O)C[C@H](CCCCN)NC(=O)[C@H](CC2CCCCC2)NC(=O)[C@@H]2CCCN2[C@H](C(=O)NC(C)(C)C)[C@H](C)NC(=O)[C@H]([C@@H](C)O)NC(=O)[C@H](CC(=O)O)NC1=O [Compound 210] | 16.0 | 72 | 1150
CC(C)C[C@@H]1NC(=O)C[C@H](CCCCN)NC(=O)[C@H](Cc2ccccc2-c2ccc(N3CCNCC3)cc2)NC(=O)[C@@H]2CCCN2[C@H](C(=O)NC(C)(C)C)[C@H](C)NC(=O)[C@H]([C@@H](C)O)NC(=O)[C@H](CC(=O)O)NC1=O [Compound 271] | 34.6 |  | 1150
CC(C)C[C@@H]1NC(=O)C2(Cc3ccccc3C2)NC(=O)[C@@H]2CCCN2[C@H](C(=O)NC(C)(C)C)[C@H](C)NC(=O)[C@H]([C@@H](C)O)NC(=O)[C@H](CC(=O)O)NC1=O [Compound 89] | 14.4 | 16 | 232
CC(C)C[C@@H]1NC(=O)[C@@H]2C[C@@H](OCc3ccccc3)CN2C(=O)[C@@H]2CCCN2[C@H](C(=O)NC(C)(C)C)[C@H](C)NC(=O)[C@H]([C@@H](C)O)NC(=O)[C@H](CC(=O)O)NC1=O [Compound 57] | 2.5 | 59 | 148
CC(C)C[C@@H]1NC(=O)CN(C)C(=O)[C@H](Cc2cccc3ccccc23)NC(=O)[C@@H]2CCCN2[C@H](C(=O)NC(C)(C)C)[C@H](C)NC(=O)[C@H]([C@@H](C)O)NC(=O)[C@H](CC(=O)O)NC1=O [Compound 117] | 8.7 | 158 | 1380
CC(C)C[C@@H]1NC(=O)[C@H]2CCCCN2C(=O)[C@H](Cc2cscn2)NC(=O)[C@@H]2CCCN2[C@H](C(=O)NC(C)(C)C)[C@H](C)NC(=O)[C@H]([C@@H](C)O)NC(=O)[C@H](CC(=O)O)NC1=O [Compound 131] | 3.1 | 26 | 80
C=CCOc1ccc(C[C@@H]2NC(=O)[C@@H]3CCCN3[C@H](C(=O)NC(C)(C)C)[C@H](C)NC(=O)[C@H]([C@@H](C)O)NC(=O)[C@H](CC(=O)O)NC(=O)[C@H](CC(C)C)NC(=O)[C@@H](C(C)C)NC2=O)cc1 [Compound 166] | 7.7 | 179 | 1380
CC(C)C[C@@H]1NC(=O)C[C@H](CCCCN)NC[C@H](Cc2ccc(CN)cc2)NC(=O)[C@@H]2CCCN2[C@H](C(=O)NC(C)(C)C)[C@H](C)NC(=O)[C@H]([C@@H](C)O)NC(=O)[C@H](CC(=O)O)NC1=O [Compound 218] | 16.5 | 190 | 3130
CC(C)C[C@@H]1NC(=O)c2ccc(-c3ccccc3N3CCNCC3)c(c2)CNC(=O)[C@@H]2CCCN2[C@H](C(=O)NC(C)(C)C)[C@H](C)NC(=O)[C@H]([C@@H](C)O)NC(=O)[C@H](CC(=O)O)NC1=O [Compound 348] | 1.5 | 27 | 41
CC(C)C[C@@H]1NC(=O)CN(C)C(=O)[C@H](Cc2ccc(I)cc2)NC(=O)[C@@H]2CCCN2[C@H](C(=O)NC(C)(C)C)[C@H](C)NC(=O)[C@H]([C@@H](C)O)NC(=O)[C@H](CC(=O)O)NC1=O [Compound 107] | 16.0 | 150 | 2390
CC(C)C[C@@H]1NC(=O)[C@H](C2CCCCC2)NC(=O)[C@@H]2CCCN2[C@H](C(=O)NC(C)(C)C)[C@H](C)NC(=O)[C@H]([C@@H](C)O)NC(=O)[C@H](CC(=O)O)NC1=O [Compound 91] | 14.5 | 126 | 1820
CC[C@H](C)[C@@H]1NC(=O)[C@H](CC(=O)O)NC(=O)[C@H](CC(C)C)NC(=O)C[C@H](CCCCN)NC(=O)[C@@H](Cc2ccc(CN)cc2)NC(=O)[C@@H]2CCCN2[C@H](C(=O)NC(C)(C)C)[C@H](C)NC1=O [Compound 253] | 15.6 | 69 | 1090
CC(C)C[C@@H]1NC(=O)[C@@H]2C[C@@H](O)CN2C(=O)[C@H](Cc2ccc(O)cc2)NC(=O)[C@@H]2CCCN2[C@H](C(=O)NC(C)(C)C)[C@H](C)NC(=O)[C@H]([C@@H](C)O)NC(=O)[C@H](CC(=O)O)NC1=O [Compound 139] | 0.7 | 100 | 73
